Consider two molecules from patent US20220054494A1, “METHODS FOR TREATING BLADDER AND URETHRA DYSFUNCTION AND DISEASE” (University of Pittsburgh - Of the Commonwealth System of …, priority 2019, published 2022).

Entries after “also recorded” stand apart in the source; their conditions may differ.

For experiment [1] the following is noted: Jackson et al., J Pharmacol Exp Ther 2016; cited from earlier work.
The subject of experiment [2] is deoxycorticosterone/salt-induced hypertension. The settings on record: chronic oral treatment of rats; Jackson et al. 2016; cited from earlier work.
For experiment [3], the system named is aged rats. Nature of the experiment: Voiding analysis in metabolic cages, aged rats. The format is in vivo, rat. The settings on record: aged rats; intravesical 5 μM forodesine plus 10 μM DEA-NONOate, 3 weeks of treatment; vs aged control rats. The procedure: Experimental design: Young (3 months of age) and aged (25 to 30 months of age) Fisher 344 rats were used in these experiments. Some of the aged Fisher 344 rats were treated with 8-AG (5 mg kg/day via drinking water) for 1 month.
Voiding analysis: Rats were placed in metabolic cages for 24 hr (once per week for the duration of the study). Voided urine was collected in cups attached to force displacement transducers (GRASS TECHNOLOGIES®, Warwick, R.I.) connected to a computer running WINDAQ™ data acquisition software (DATAQ™ Instruments Inc., Akron, Ohio). Data were averaged for 24 h, and voiding frequency, total voided volume, and volume per void were analyzed. Voiding frequency was calculated as the number of voiding events per hour during 24 h, and volume per void, which defines bladder capacity, was calculated as an average of the voids occurring during these periods.
Animals: Male and female Fisher 344 rats were employed (Charles River; Wilmington, Mass. and the NIA rodent colony). Some rats were young (3 months of age), some were aged (25-30 months of age), and others were aged and treated with oral 8-AG (5 mg/kg/day; 6 weeks). Under isoflurane anesthesia and using an aseptic technique, an incision was made into the lower abdomen and in the scapular area. Sterile PE50 tubing was threaded subcutaneously from the lower abdomen to the scapular area and connected to a one-channel vascular access button (Intech Laboratories, Plymouth Meeting, Pa.). In the abdomen, the tubing was inserted into the bladder and secured with a small purse-string suture. The incisions were closed, and the animals were allowed to recover for 7-10 days before further experimentation. Animals were divided into three groups. A control group of aged rats received daily infusions with 10 μM DEA-NONOate (SIGMA-ALDRICH®, St. Louis, Mo.) in sterile 0.9% saline. A second group received 100 μM 8-AG plus 10 μM DEA-NONOate in 0.9% saline, and a third group received 5 μM forodesine (SIGMA-ALDRICH®) plus 10 μM DEA-NONOate in 0.9% saline. Bladders were instilled via a catheter tether kit (Instech Laboratories) connected to a syringe pump for continuous infusion (rate 200 μl/min; 30 minutes/daily) for 3-6 weeks. The Institutional Animal Care and Use Committee approved all procedures. The investigation conforms to the Guide for the Care and Use of Laboratory Animals published by the US National Institutes of Health (NIH Publication No. 85-23, revised 1996).
Protocol 1: Young, aged, and 8-AG-treated aged rats were placed in metabolism cages for 24 hr once per week. The light cycle was from 7:00 AM to 7:00 PM, and food and water were provided ad libitum. Voided urine was collected in cups attached to force displacement transducers (GRASS TECHNOLOGIES®, Warwick, R.I.) that were connected to a computer running Windaq data acquisition software (DATAQ® Instruments I2nc., Akron, Ohio). Data were averaged for 24 h and analyzed for 12-h periods during the day (7:00 AM-7:00 PM) and night (7:00 PM-7:00 AM). Voiding frequency, total voided volume, and volume per void were analyzed. Voiding frequency was calculated as the number of voiding events per hour during 24 h and during the 12-h day and 12-h night periods. Volume per void, which defines bladder capacity, was calculated as an average of the voids occurring during these periods.
Voiding Analysis: Young, aged, and 8-AG-treated aged rats were placed in metabolic cages (24 hr; once per week) for the duration of the study. The light cycle was from 7:00 AM to 7:00 PM, and food and water were provided ad libitum. Voided urine was collected in cups attached to force displacement transducers (Grass Technologies, Warwick, R.I.) connected to a computer (Windaq data acquisition software DATAQ Instruments Inc., Akron, Ohio). Data were averaged for 24 h and analyzed for 12-h periods during the day (7:00 AM-7:00 PM) and night (7:00 PM-7:00 AM). Voiding frequency, total voided volume, and volume per void were analyzed. […]

Experiment [4] has as its system aged rats. Nature of the experiment: Voiding analysis in metabolic cages, aged rats. The format is in vivo, rat. The settings on record: aged rats; intravesical 5 μM forodesine plus 10 μM DEA-NONOate, 3 weeks of treatment; vs aged control rats. The source holds these as a separate data set.

In the case of `Nc1nc2c(nc(N)n2[C@@H]2O[C@H](CO)[C@@H](O)[C@H]2O)c(=O)[nH]1` [8-aminoguanosine, 8-Aminoguanosine, reference compound], in experiment [1], the diuresis entry is “induce”, the glucosuria result was “induce”, the natriuresis entry was “induce” and the potassium excretion result is “reduce”. For the same molecule, the “development of deoxycorticosterone/salt-induced hypertension” value in experiment [2] is on record as “attenuate”.

For the molecule `O=c1[nH]cnc2c([C@@H]3N[C@H](CO)[C@@H](O)[C@H]3O)c[nH]c12` [forodesine, 7-[(2S,3S,4R,5R)-3,4-dihydroxy-5-(hydroxymethyl)pyrrolidin-2-yl]-3H,4H,5H-pyrrolo[3,2-d]pyrimidin-4-one, reference compound], in experiment [3], the voided volume result is “significant improvement; also recorded: significantly attenuates” and the voiding frequency entry is reported as “significant improvement; also recorded: significantly attenuates”. In experiment [4], the inter-contraction interval entry is “significant improvement; also recorded: significantly attenuates”.
